Structures are written as SMILES.

This assay has as its target T1, Aurora kinase A (Homo sapiens, UniProt O14965).
T1 sequence (O14965 whole entry): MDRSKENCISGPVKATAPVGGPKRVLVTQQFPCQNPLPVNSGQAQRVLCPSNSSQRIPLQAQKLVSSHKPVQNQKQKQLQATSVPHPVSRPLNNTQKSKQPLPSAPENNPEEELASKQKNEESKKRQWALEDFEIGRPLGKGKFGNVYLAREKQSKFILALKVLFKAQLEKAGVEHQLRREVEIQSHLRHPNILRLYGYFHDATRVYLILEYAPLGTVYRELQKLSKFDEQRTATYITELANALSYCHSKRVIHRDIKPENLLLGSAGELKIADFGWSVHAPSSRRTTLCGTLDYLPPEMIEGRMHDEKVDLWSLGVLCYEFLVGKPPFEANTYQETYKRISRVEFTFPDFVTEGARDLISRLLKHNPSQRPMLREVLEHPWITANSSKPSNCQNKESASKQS
Put plainly: Inhibition of Aurora A.
In the case of `c1ccc(-c2ccc(-c3nc4cccnc4[nH]3)cc2)nc1`, the midpoint of inhibition, the IC50, lay at 4400 nM.
Take `O=C(CN1CCN(c2c(Br)cnc3[nH]cnc23)CC1)Nc1nccs1`: the IC50 (as a rule, the concentration needed to halve the response being measured) is 81 nM.
`Cc1cc(CN2CCN(c3c(Cl)cnc4nc(-c5ccc(Cn6cccn6)cc5)[nH]c34)CC2)no1`: the midpoint of inhibition, the IC50, lay at 3 nM.
With `COc1ccc(-c2nc3c(N4CCN(Cc5coc(C(C)C)n5)CC4)c(Br)cnc3[nH]2)cc1` the figure was 81 nM; with `Cc1cc(CN2CCN(c3c(Cl)cnc4nc(-c5ccc(N6CCN(C)CC6)cc5)[nH]c34)CC2)no1`, 10 nM; with `Cc1cc(CN2CCN(c3c(Cl)cnc4nc(-c5ccc(OCCO)cc5)[nH]c34)CC2)no1`, 29 nM.
In the case of `COc1ccc(-c2nc3c(N4CCN(Cc5ccncc5)CC4)c(Br)cnc3[nH]2)cc1` it was 9 nM; in that of `CC(=O)c1cccc(-c2ccc(-c3nc4ncc(Br)c(N5CCN(Cc6cc(C)on6)CC5)c4[nH]3)cc2)c1`, 14 nM.
Consider `CN(C)c1ccc(-c2nc3c(N4CCN(CC(=O)Nc5ccccc5)CC4)c(Br)cnc3[nH]2)cc1`, for which the IC50 was 277 nM.
With `Cc1cc(CN2CCN(c3c(Br)cnc4[nH]c(-c5ccc(Cn6cccn6)cc5)nc34)CC2)no1` the figure was 10 nM.
Molecule `CC(c1ccncc1)N1CCN(c2c(Br)cnc3[nH]c(-c4ccc(N(C)C)cc4)nc23)CC1` (configuration not stated) came in with an IC50 of 55 nM.
`Cc1cc(CN2CCN(c3c(Br)cnc4[nH]c(-c5ccc(N6CCNCC6)cc5)nc34)CC2)no1` displayed an IC50 of 10 nM.

Values taken from ChEMBL document CHEMBL1649365, “Molecular modeling studies on imidazo[4,5-b]pyridine derivatives as Aurora A kinase inhibitors using 3D-QSAR and docking approaches” (Eur J Med Chem, 2011).
